The values below come from patent US7772156B2, “Microbicidal compositions including a cyanodithiocarbimate and a second microbicide, and methods of using the same” (Buckman Laboratories International, Inc., priority 2006, dated 2010).

Values joined by “and” are separate entries in the source; they are usually repeats but may differ in a detail not shown here. Equal values may be shown once. Bounds are passed on as bounds.

One data set deals with Aspergillus niger. Description: Fungal evaluation: growth prevention of Aspergillus niger in mineral salts-glucose medium, synergism by the method of Kull. The class given is cell-based. Particulars: for X (QA/Qa+QB/Qb), Test 1 / X (QA/Qa+QB/Qb), Test 2 / X (QA/Qa+QB/Qb), Test 3: combination of S-chloromethyl-S'-hexylcyanodithioimidocarbimate (A) with the named second microbicide (B), Aspergillus niger, 7 days, 25° C., X<1 synergistic, X=1 additive, X>1 antagonistic; for QA = lowest concentration of compound A in the mixture which produced an end point: compound A in mixture with the named compound B; for Qb = lowest concentration of compound B acting alone which produced an end point: named compound B alone; for QB = lowest concentration of compound B in the mixture which produced an end point: named compound B in mixture with compound A. The protocol: Mineral salts-glucose medium was used. To prepare the medium, the following ingredients were added to 1 liter of deionized water: 0.7 g of KH2PO4; 0.7 g of MgSO4·7H2O; 1.0 g of HN4NO3; 0.005 g of NaCl; 0.002 g of FeSO4·7H2O; 0.002 g ZnSO4·7H2O; 0.001 g of MnSO4·7H2O; 10 g of Glucose. The pH of the medium was adjusted to 6 with 1N NaOH. The medium was distributed in 5 ml amounts in test tubes and autoclaved at 121° C. for 20 minutes. The fungus, Aspergillus niger, was grown on potato dextrose agar slant for 5 to 10 days and a spore suspension prepared by washing down the spores from the slant into a sterile saline solution. After addition of the biocides in the desired concentrations in the sterile mineral salts-glucose medium, the fungal spore suspension was added. The final spore concentration was approximately 10^6 cfu/ml. The inoculated media was incubated at 25° C. for 7 days. The experimental design is termed a […] in which each test concentration of compound A is combined with each test concentration of compound B.
End points for the various mixtures were then compared with the end points for the pure active ingredients alone in concomitantly prepared flasks or test tubes.
When the sum of QA/Qa and QB/Qb is greater than one, antagonism is indicated. When the sum is equal to one, additivity is indicated. When the sum is less than one, synergism exists.
For: X<1 A and B are synergistic • X=1 A and B are additive • X>1 A and B are antagonistic For combinations of cyanodithiocarbimate with the selected second microbicide, the calculated values of X in each case are: […]

The conditions of data set [1]: cited from earlier work.
The mark [2] stands for this setting: complete prevention of growth of Aspergillus niger for seven days.

As to `CCCCCCCCn1sccc1=O` [2-N-octyl-4-isothiazolin-3-one], the “X (QA/Qa+QB/Qb), Test 1” value in the data set on Aspergillus niger was found to be 0.64. Also, in the data set with Aspergillus niger (setting [2]), the “QA = lowest concentration of compound A in the mixture which produced an end point” value (from here on “QA = lowest concentration”) turned out to be 0.1 ppm active ingredient, the “Qb = lowest concentration of compound B acting alone which produced an end point” value is on record as greater than 0.175 ppm active ingredient and the “QB = lowest concentration of compound B in the mixture which produced an end point” value turned out to be 0.025 ppm active ingredient.
For `CCCCCCCCn1sc(Cl)c(Cl)c1=O` [4,5-dichloro-2-N-octyl-4-isothiazolin-3-one], in the data set with Aspergillus niger, the “X (QA/Qa+QB/Qb), Test 1” value stood at 0.7 and the “X (QA/Qa+QB/Qb), Test 2” value is reported as 0.5. Further, in the data set on Aspergillus niger (setting [2]), the “QA = lowest concentration” value came to 0.05 ppm active ingredient, the “Qb = lowest concentration of compound B acting alone which produced an end point” value is reported as 0.2 ppm active ingredient and the “QB = lowest concentration of compound B in the mixture which produced an end point” value is 0.1 ppm active ingredient.
As for `O=C(CBr)OC/C=C\COC(=O)CBr` [BBAB, 1,4-bis(bromoacetoxy)-2-butene], the solubility in water result in data set [1] is given as “extremely low”.
Regarding `O=C(CBr)c1ccc(O)cc1` [BHAP, 2-bromo-4′-hydroxyacetophenone], in the data set with Aspergillus niger, the “X (QA/Qa+QB/Qb), Test 1” value is listed as 1.22; the “X (QA/Qa+QB/Qb), Test 2” value amounted to 1.0; the “X (QA/Qa+QB/Qb), Test 3” value was found to be 0.8. Besides, in the data set with Aspergillus niger (setting [2]), the “QA = lowest concentration” value is recorded as 0.3 ppm active ingredient, the “Qb = lowest concentration of compound B acting alone which produced an end point” value was greater than 8.0 ppm active ingredient and the “QB = lowest concentration of compound B in the mixture which produced an end point” value is given as 1.0 ppm active ingredient.
Regarding `CCCCCCSC(=NC#N)SCCl` [Compound A, S-Hexyl-S′-chloromethylcyanodithiocarbimate], the “Qa = concentration of compound A acting alone which produced an end point” value with Aspergillus niger (compound A alone, run concomitantly with the compound B, complete prevention of growth of Aspergillus niger for seven days) was 0.3 ppm active ingredient and 0.25 ppm active ingredient and 0.175 ppm active ingredient and 0.35 ppm active ingredient and 0.2 ppm active ingredient.
For the compound `CCCCNC(=O)OCC#CI` [IPBC, 3-iodo-2-propynyl butyl carbamate], in the data set on Aspergillus niger, the “X (QA/Qa+QB/Qb), Test 1” value was found to be 0.86 and the “X (QA/Qa+QB/Qb), Test 2” value amounted to 0.3. For the same compound, in the data set on Aspergillus niger (setting [2]), the “QA = lowest concentration” value turned out to be 0.025 ppm active ingredient, the “Qb = lowest concentration of compound B acting alone which produced an end point” value was 0.35 ppm active ingredient and the “QB = lowest concentration of compound B in the mixture which produced an end point” value came to 0.05 ppm active ingredient.
`N#CSCSC#N` [MTC, Methylene-bis(thiocyanate)]: in the data set on Aspergillus niger, the “X (QA/Qa+QB/Qb), Test 1” value was found to be 0.64; the “X (QA/Qa+QB/Qb), Test 2” value is reported as 0.46; the “X (QA/Qa+QB/Qb), Test 3” value stood at 0.29. For the same compound, in the data set on Aspergillus niger (setting [2]), the “QA = lowest concentration” value was 0.05 ppm active ingredient, the “Qb = lowest concentration of compound B acting alone which produced an end point” value is greater than 0.7 ppm active ingredient and the “QB = lowest concentration of compound B in the mixture which produced an end point” value turned out to be 0.1 ppm active ingredient.
As for `N#CSCSc1nc2ccccc2s1` [TCMTB, 2-(Thiocyanomethylthio)benzothiazole], in the data set with Aspergillus niger, the “X (QA/Qa+QB/Qb), Test 1” value was 0.27; the “X (QA/Qa+QB/Qb), Test 2” value turned out to be 0.25; the “X (QA/Qa+QB/Qb), Test 3” value was 0.7. In addition, in the data set with Aspergillus niger (setting [2]), the “QA = lowest concentration” value is given as 0.15 ppm active ingredient, the “Qb = lowest concentration of compound B acting alone which produced an end point” value was 1.0 ppm active ingredient and the “QB = lowest concentration of compound B in the mixture which produced an end point” value is given as 0.05 ppm active ingredient.
